Values joined by “and” are separate entries in the source; they are usually repeats but may differ in a detail not shown here. Equal entries are not always repeated.
Tests used:
[1] = tested on: four grassy weeds: wild oat, watergrass, green foxtail and crabgrass; assay: Pre-emergence herbicidal activity, grassy weeds (Table III); assay type: in vivo; conditions: 2.24 kg/ha, 2-3 weeks after treatment
Description: (§1) The herbicidal effect was observed by comparing the extent of weed control in test flats treated with the compounds against that occurring in similar non-treated control flats. All were applied at 3.57 lb/A (4 kg/ha) to pre-emergence and post-emergence screening flats. An 80 gal/A (748.3 1/ha) spray volume was utilized. Post-emergence flats were seeded 12 days prior to treatment. Pre-emergence flats were seeded one day prior to treatment. Overhead watering of pre-emergence flats and soil surface watering of post-emergence flats, so as to avoid wetting the foliage, were carried out for the duration of the test.
(§2) Weed seeds were planted in a flat at a seed depth of 0.5 inch (1.3 cm). Soil for flats was prepared using loam soil fortified with 17-17-17 fertilizer (N-P2 O5 -K2 O on a weight basis) and Captan 80W fungicide. The test weeds were as follows:
(§3) The spray solutions were prepared by dissolving 240 mg of test compound in 20 ml of acetone containing 1% polyoxyethylene sorbitan monolaurate emulsifier, then adding 20 ml of water to the resulting solution. The spray solutions were applied using a linear spray table. Pre-emergence flats are raised to the level of the post-emergence foliage canopy by setting the flats on a wooden block.
(§4) The degree of weed control was visually assessed and recorded as percentage control compared to the growth of the same species in an untreated check flat of the same age. The rating scale ranges from 0 to 100%, where 0 equals no effect with plant growth equal to the untreated control, and 100 equals complete kill.
(§5) Compounds 68 to 145 in Table I were tested generally similarly to Compounds No. 1 to 67 with the following differences: The rate of application was 2 lb/acre (2.24 kg/ha), no 6-day evaluations were made, and the weeds were:
(§6) Four grassy weeds: wild oat, watergrass, green foxtail and crabgrass (Digitaria sanguinalis);
(§7) Ratings were taken 2-3 weeks after treatment.

[2] = tested on: three broadleaf weeds: wild mustard, redroot pigweed and curly dock; assay: Pre-emergence herbicidal activity, broadleaf weeds (Table III); assay type: in vivo, Brassica kaber, Amaranthus retroflexus, Rumex crispus; conditions: 2.24 kg/ha, 2-3 weeks after treatment
Description: as §1, §2, §3, §4, §5
(§8) Three broadleaf weeds: wild mustard, redroot pigweed (Amaranthus retroflexus) and curly dock (Rumex crispus).
as §7

[3] = tested on: four grassy weeds: wild oat, watergrass, green foxtail and crabgrass; assay: Post-emergence herbicidal activity, grassy weeds (Table III); assay type: in vivo; conditions: 2.24 kg/ha, 2-3 weeks after treatment
Description: as §1, §2, §3, §4, §5, §6, §7

[4] = tested on: three broadleaf weeds: wild mustard, redroot pigweed and curly dock; assay: Post-emergence herbicidal activity, broadleaf weeds (Table III); assay type: in vivo, Brassica kaber, Amaranthus retroflexus, Rumex crispus; conditions: 2.24 kg/ha, 2-3 weeks after treatment
Description: as §1, §2, §3, §4, §5, §8, §7

[5] = tested on: three grassy weeds (wild oat, watergrass, foxtail); design: species or system Avena fatua, Echinochloa crusgalli, Setaria viridis; conditions: in vivo
[6] = tested on: three broadleaf weeds (morning glory, mustard, velvetleaf); design: species or system Ipomoea purpurea, Brassica kaber, Abutilon theophrasti; conditions: in vivo
[7] = tested on: yellow nutsedge; design: species or system Cyperus esculentus; conditions: in vivo
[8] = tested on: three broadleaf weeds (morning glory, mustard, velvetleaf); design: species or system Ipomoea purpurea, Brassica kaber, Abutilon theophrasti; conditions: in vivo; remark: listed apart in the source
[9] = tested on: yellow nutsedge; design: species or system Cyperus esculentus; conditions: in vivo; remark: listed apart in the source

Row | Structure (SMILES) | % Control, Pre-Emergence, GR Avg. [1] | % Control, Pre-Emergence, BL Avg. [2] | % Control, Post-Emergence, GR Avg. [3] | % Control, Post-Emergence, BL Avg. [4] | % Control, Pre-emergence, GR avg. [5] | % Control, Pre-emergence, BL avg. [6] | % Control, Pre-emergence, NS [7] | % Control, Post-emergence, BL avg. [8] | % Control, Post-emergence, NS [9]
1 | CCCN(CCC)P(=O)(SC(C)CC)N1CC(CC)CCC1C (stereo not drawn) [Compound 98] | 0% | 33% | 61% | 90% | – | – | – | – | –
2 | CCCN(CCC)P(=O)(SC(C)CC)N(CCC)CCC (stereo not drawn) [Compound 80] | 25% | 53% | 80% | 100% | – | – | – | – | –
3 | CCCCCSP(=O)(N(CC)CCCC)N(CCC)CCC (stereo not drawn) [Compound 133] | 0% | 10% | 59% | 97% | – | – | – | – | –
4 | CCCCN(CCCC)P(=O)(SCC)N(CC)CC (stereo not drawn) [Compound 84] | 5% | 13% | 75% | 99% | – | – | – | – | –
5 | CCCCN(CCCC)P(=O)(SCC)N(CCC)CCC (stereo not drawn) [Compound 123] | 0% | 0% | 65% | 89% | – | – | – | – | –
6 | CCCCSP(=O)(N(CC)CC)N(CC)CC [Compound 69] | 13% | 0% | 30% | 87% | – | – | – | – | –
7 | CCCN(CCC)P(=O)(SC1CCCCC1)N(CCC)CCC [Compound 118] | 0% | 0% | 30% | 63% | – | – | – | – | –
8 | CCCCN(CC)P(=O)(SCCC)N(CCC)CCC (stereo not drawn) [Compound 89] | 0% | 7% | 90% | 100% | – | – | – | – | –
9 | CCCCCSP(=O)(N(CCC)CCC)N(CCC)CCC [Compound 131] | 0% | 23% | 58% | 93% | – | – | – | – | –
10 | CCCCCCSP(=O)(N(CC)CCCC)N(CCC)CCC (stereo not drawn) [Compound 135] | 0% | 10% | 54% | 96% | – | – | – | – | –
11 | CCCCCCSP(=O)(N(CCC)CCC)N(CCC)CCC [Compound 116] | 0% | 10% | 53% | 96% | – | – | – | – | –
12 | CCCN(CCC)P(=O)(SCc1ccccc1)N(CCC)CCC [Compound 95] | 5% | 13% | 55% | 80% | – | – | – | – | –
13 | CCCN(CCC)P(=O)(SCC)N(CCC)CCC [Compound 70] | 5% | 10% | 82% | 99% | – | – | – | – | –
14 | CCCN(CCC)P(=O)(Sc1ccccc1)N(CCC)CCC [Compound 78] | 0% | 0% | 50% | 98% | – | – | – | – | –
15 | CCCCN(CCCC)P(=O)(SCCC)N(CC)CC (stereo not drawn) [Compound 85] | 12% | 10% | 89% | 99% | – | – | – | – | –
16 | CCCSP(=O)(N(CCC)CCC)N(C)c1ccc(F)c(F)c1F (stereo not drawn) [Compound 47] | – | – | – | – | 0% | 0% | 0% | 100% and 98% | 0%
17 | CCCSP(=O)(N(CCC)CCC)N(C)c1ccc(F)cc1C (stereo not drawn) [Compound 64] | – | – | – | – | 3% | 0% | 0% | 85% and 93% | 0% and 5%
18 | CCCSP(=O)(N(CCC)CCC)N(C)c1cc(F)ccc1C (stereo not drawn) [Compound 67] | – | – | – | – | 0% | 16% | 0% | 95% and 100% | 0%

Reference: patent publication US5189169A (priority 1991, dated 1993)
